According to ChEMBL document CHEMBL1201862, “PubChem BioAssay data set” (2004):
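Tested at 5 concentrations; 48 h exposure; 96-well plates; endpoints linearly interpolated, else capped at highest concentration. Abbreviation: GI50, concentration required for 50% inhibition of growth.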 Activity calls are given as the source filed them. Cut-off read from the data, not from the text of the source: active = GI50 up to about 1.1 µM and inactive = higher.

Assays:
Test in all cases: inhibition of tumour cell growth, NCI panel, 48 h
786-0 = system: 786-0
CAKI-1 = system: CAKI-1
CCRF-CEM = system: CCRF-CEM
COLO 205 = system: COLO 205
DU-145 = system: DU-145
HCT-15 = system: HCT-15
HL-60 = system: HL-60
IGROV-1 = system: IGROV-1
KM12 = system: KM12
LOX IMVI = system: LOX IMVI
MDA-MB-435 = system: MDA-MB-435
NCI-H226 = system: NCI-H226
NCI-H460 = system: NCI-H460
NCI-H522 = system: NCI-H522
SF-268 = system: SF-268
SK-MEL-28 = system: SK-MEL-28
SK-OV-3 = system: SK-OV-3
SN12C = system: SN12C
TK-10 = system: TK-10
U-251 = system: U-251

Measured: GI50

ClCc1nc2cc(Cl)ccc2o1
inactive: 786-0 1.67 µM | CAKI-1 1.65 µM | CCRF-CEM 1.96 µM | COLO 205 2.65 µM | DU-145 6.21 µM | HL-60 2.49 µM | IGROV-1 1.61 µM | KM12 12.3 µM | LOX IMVI 2.44 µM | MDA-MB-435 2.6 µM | NCI-H226 15.9 µM | NCI-H460 12.5 µM | NCI-H522 1.6 µM | SF-268 7.98 µM | SK-MEL-28 4.44 µM | SK-OV-3 14.8 µM | SN12C 6.53 µM | TK-10 2.83 µM | U-251 3.15 µM
3.39 µM: HCT-15

OC1OC(c2ccc[nH]2)C(F)(F)C(F)(F)C1(F)F (stereo not given)
inactive: 786-0 > 100 µM | CAKI-1 87.3 µM | CCRF-CEM 73.6 µM | COLO 205 26.7 µM | DU-145 > 100 µM | HL-60 43.5 µM | IGROV-1 > 100 µM | KM12 > 100 µM | LOX IMVI > 100 µM | MDA-MB-435 > 100 µM | NCI-H226 > 100 µM | NCI-H460 > 100 µM | NCI-H522 > 100 µM | SF-268 > 100 µM | SK-MEL-28 > 100 µM | SK-OV-3 > 100 µM | SN12C > 100 µM | TK-10 > 100 µM | U-251 > 100 µM
> 100 µM: HCT-15

CN(C)CCNS(=O)(=O)N(C)C
inactive: 786-0 > 100 µM | CAKI-1 > 100 µM | CCRF-CEM > 100 µM | COLO 205 > 100 µM | DU-145 > 100 µM | HL-60 > 100 µM | IGROV-1 > 100 µM | KM12 > 100 µM | LOX IMVI > 100 µM | MDA-MB-435 > 100 µM | NCI-H226 > 100 µM | NCI-H460 > 100 µM | NCI-H522 > 100 µM | SF-268 > 100 µM | SK-MEL-28 > 100 µM | SK-OV-3 > 100 µM | SN12C > 100 µM | TK-10 > 100 µM | U-251 > 100 µM
> 100 µM: HCT-15

COc1ccnc2c1C(=O)c1nc3ccccc3c3ccnc-2c13
active: 786-0 0.221 µM | CAKI-1 0.181 µM | CCRF-CEM 0.295 µM | COLO 205 0.0796 µM | DU-145 0.0479 µM | HL-60 0.06 µM | IGROV-1 0.177 µM | KM12 0.101 µM | LOX IMVI 0.155 µM | MDA-MB-435 0.396 µM | NCI-H226 0.17 µM | NCI-H460 0.0232 µM | NCI-H522 0.0375 µM | SF-268 0.137 µM | SK-MEL-28 0.305 µM | SK-OV-3 0.167 µM | SN12C 0.112 µM | TK-10 0.324 µM | U-251 0.204 µM
< 0.01 µM: HCT-15

C1CNOCCCONCCCNOCCCONC1
> 100 µM: HCT-15
inactive: 786-0 > 100 µM | CAKI-1 > 100 µM | CCRF-CEM > 100 µM | COLO 205 > 100 µM | DU-145 58.9 µM | HL-60 51.8 µM | IGROV-1 56.1 µM | KM12 > 100 µM | LOX IMVI > 100 µM | MDA-MB-435 > 100 µM | NCI-H226 > 100 µM | NCI-H460 32.1 µM | NCI-H522 67.6 µM | SF-268 85.9 µM | SK-MEL-28 > 100 µM | SK-OV-3 37.1 µM | SN12C 77.4 µM | TK-10 31 µM | U-251 31.7 µM

COc1cc(CC2c3cc(OC)c(OC)cc3CCN2C)c(Oc2cc3c(cc2OC)-c2c(O)c(OC)cc4c2C(C3)N(C)CC4)cc1OC (stereo not given)
14 µM: HCT-15
inactive: 786-0 23.1 µM | CAKI-1 23.7 µM | CCRF-CEM 18.8 µM | COLO 205 11.4 µM | DU-145 24.1 µM | HL-60 4.01 µM | IGROV-1 20 µM | KM12 15 µM | LOX IMVI 16.5 µM | MDA-MB-435 24 µM | NCI-H226 26.7 µM | NCI-H460 18.4 µM | NCI-H522 17.8 µM | SF-268 17.8 µM | SK-MEL-28 20.3 µM | SK-OV-3 41.1 µM | SN12C 22.1 µM | TK-10 22 µM | U-251 24.5 µM

CCOC(=O)/C=C/CCC(C)(C)COC(C)=O
inactive: 786-0 > 10 µM | CAKI-1 > 10 µM | CCRF-CEM > 10 µM | COLO 205 > 10 µM | DU-145 > 10 µM | HL-60 > 10 µM | IGROV-1 > 10 µM | KM12 > 10 µM | LOX IMVI > 10 µM | MDA-MB-435 > 10 µM | NCI-H226 > 10 µM | NCI-H460 > 10 µM | NCI-H522 > 10 µM | SF-268 > 10 µM | SK-MEL-28 > 10 µM | SK-OV-3 > 10 µM | SN12C > 10 µM | TK-10 > 10 µM | U-251 > 10 µM
> 10 µM: HCT-15

Cc1nn2c(=O)c([N+](=O)[O-])c(/C=C/c3ccco3)nc2s1
inactive: 786-0 76 µM | CAKI-1 52.6 µM | CCRF-CEM 31.7 µM | COLO 205 61.4 µM | DU-145 40.5 µM | HL-60 30.8 µM | IGROV-1 51.8 µM | KM12 39.2 µM | LOX IMVI 17.6 µM | MDA-MB-435 21.1 µM | NCI-H226 77.3 µM | NCI-H460 36.2 µM | NCI-H522 60.5 µM | SF-268 36.4 µM | SK-MEL-28 48.6 µM | SK-OV-3 43.6 µM | SN12C 64.9 µM | TK-10 > 100 µM | U-251 29.4 µM
41.5 µM: HCT-15

COc1ccc2c(c1OC)C(C(Cl)(Cl)Cl)N1CCc3cc4c(cc3C1=C2)OCO4 (stereo not given)
inactive: 786-0 15.2 µM | CAKI-1 40.8 µM | CCRF-CEM 6.71 µM | COLO 205 5.45 µM | DU-145 16.3 µM | HL-60 15.2 µM | IGROV-1 25.5 µM | KM12 7.6 µM | LOX IMVI 32.7 µM | MDA-MB-435 11.1 µM | NCI-H226 10.9 µM | NCI-H460 10.7 µM | NCI-H522 13.9 µM | SF-268 3.41 µM | SK-MEL-28 12 µM | SK-OV-3 23.9 µM | SN12C 13.1 µM | TK-10 27 µM | U-251 3.69 µM
33.3 µM: HCT-15

Cc1cc(Cl)ccc1Nc1nc2c(s1)C(=O)c1ccccc1C2=O
1.85 µM: HCT-15
inactive: 786-0 1.71 µM | CAKI-1 6.3 µM | CCRF-CEM 2.18 µM | COLO 205 4.33 µM | DU-145 1.68 µM | IGROV-1 4.51 µM | KM12 6.01 µM | LOX IMVI 1.53 µM | NCI-H226 6.34 µM | NCI-H460 3.32 µM | NCI-H522 1.99 µM | SF-268 3.24 µM | SK-MEL-28 1.98 µM | SK-OV-3 8.49 µM | SN12C 1.8 µM | TK-10 16.9 µM | U-251 3.28 µM
active: HL-60 0.621 µM | MDA-MB-435 0.378 µM

Cc1cc2c(cc1-c1cc3c(cc1C)C(C(C)C)=C(O)C(=O)/C3=C\Nc1cccc3c(N)cccc13)/C(=C/Nc1cccc3c(N)cccc13)C(=O)C(O)=C2C(C)C
> 100 µM: HCT-15
inactive: 786-0 > 100 µM | CAKI-1 > 100 µM | CCRF-CEM 39.2 µM | COLO 205 > 100 µM | DU-145 > 100 µM | HL-60 33.8 µM | IGROV-1 > 100 µM | KM12 > 100 µM | LOX IMVI > 100 µM | MDA-MB-435 > 100 µM | NCI-H226 > 100 µM | NCI-H460 > 100 µM | NCI-H522 > 100 µM | SF-268 > 100 µM | SK-MEL-28 > 100 µM | SK-OV-3 > 100 µM | SN12C > 100 µM | TK-10 > 100 µM | U-251 49.1 µM
